In US5304554A, “4-[(alkyl or dialkyl)amino]quinolines and their method of preparation” (Emory University, priority 1992, dated 1994):
pEC50: −log10 of the molar value. “Also recorded” adds a separate entry of the source.

Columns and labels:
HIV-1 (strain LAV) = test: Anti-HIV-1 activity in human PBM cells infected with HIV-1 (strain LAV), reverse transcriptase readout; assay type: cell-based; details: Human immunodeficiency virus 1, PBMC, read-out: Median effective concentration (EC50) against HIV-1
Protocol: The median effective concentrations (EC50) of selected quinolines against HIV-1 were determined in human blood mononuclear (PBM) cells infected with HIV-1 (strain LAV) as described below. […] It appears that the presence of a heteraromatic substituent at position 2 of the quinoline enhances the anti-HIV-1 activity of the 4-[(alkyl and dialkyl)amino]quinoline derivative. The anti-HIV-1 activity appears to be diminished in compounds with large substituents attached to the 4-amino group.
The following procedure was used to determine the EC50 values for selected compounds.
A. Three-day-old phytohemagglutinin-stimulated PBM cells (10^6 cells/ml) from hepatitis B and HIV-1 seronegative healthy donors were infected with HIV-1 (strain LAV) at a concentration of about 100 times the 50% tissue culture infectious dose (TICD 50) per ml and cultured in the presence and absence of various concentrations of quinolines.
B. Approximately 45 minutes after infection, medium, with the compound to be tested (2 times the final concentration in medium) or without compound, was added to the flasks (5 ml; final volume 10 ml). AZT was used as a positive control.
C. The cells were exposed to HIV (about 2×10^5 dpm/ml, as determined by reverse transcriptase assay) and then placed in a CO2 incubator. HIV-1 (strain LAV) was obtained from the Center for Disease Control, Atlanta, Ga. The methods used for culturing the PBM cells, harvesting the virus and determining the reverse transcriptase activity were those described by McDougal et al. (J. Immun. Meth. 76, 171-183, 1985) and Spira et al. (J. Clin. Meth. 25, 97-99, 1987), except that fungizone was not included in the medium (see Schinazi, et al., Antimicrob. Agents Chemother. 32, 1784-1787 (1988)). The reverse transcriptase activity in the virus-infected control was about 2×10^5 dpm per ml. Blank and uninfected cell control values were about 300 and 1,000 dpm, respectively.
D. On day 6, the cells and media were transferred to a 15 ml tube and centrifuged at about 900 g for 10 minutes. Five ml of supernatant were removed and the virus concentrated by centrifugation at 40,000 rpm for 30 minutes (Beckman 70.1 Ti rotor). The solubilized virus pellet was processed for determination of the levels of reverse transcriptase. Results are expressed in dpm/ml of sampled supernatant.
The median effective (EC50) concentrations for derivatized quinolines, were determined by the median effect method (Antimicrob. Agents Chemother. 30: 491-498, 1986). Briefly, in the median effect method, the percent inhibition of virus, as determined from measurements of reverse transcriptase, is plotted versus the micromolar concentration of compound. The EC50 is the concentration of compound at which there is a 50% inhibition of viral replication.

[1] = Toxicity (growth) in uninfected human peripheral blood mononuclear (PBM) cells; assay type: cell-based; details: 6 days, trypan blue exclusion, read-out: IC50, growth of uninfected PBM cells
Protocol: The toxicity of 6a,6d,8a, and 8c were determined in […] PBM cells (3.8×10^5 cells/ml) cultured in the presence and absence of compounds under conditions similar to those used for the antiviral assay described above but without virus. The cells were counted after 6 days using a hemacytometer and the trypan blue exclusion method, as described by Schinazi et al., Antimicrobial Agents and Chemotherapy, 22(3), 499 (1982).
The effect of the compounds on the growth of uninfected human PBM cells in culture is used as an indicator of the toxicity of the test compound to the normal viability of cells. The IC50 is the concentration of compound which inhibits 50% of normal, uninfected, cell growth.

[2] = test system: antimalarial and antiamoebic activity; details: Hahn et al.; cited from earlier work
[3] = infants and children, high dosages; cited from earlier work
DNA = details: Hahn et al. 1966; cited from earlier work
[4] = test system: Plasmid pBR322 superhelical DNA; details: reference value; cited from earlier work

| pEC50 (HIV-1 (strain LAV)) | Compound | further results |
| --- | --- | --- |
| 4.17 | CN1CCN(c2cc(-c3ccncc3)nc3ccccc23)CC1 [Quinoline 7c] | – |
| 6.05 | CN(C)CCNc1cc(-c2ccco2)nc2ccccc12 [Quinoline 8a] | CC50 at 144 h [1]: > 100 µM |
| 6.00 | CN1CCN(c2cc(-c3ccco3)nc3ccccc23)CC1 [Quinoline 8c] | CC50 at 144 h [1]: > 100 µM |
| 6.00 | CN(C)CCNc1cc(-c2cccs2)nc2ccccc12 [Quinoline 9a] | – |
| 4.49 | CCN(CCN(C)C)c1cc(-c2cccs2)nc2ccccc12 [Quinoline 9c] | – |

Continued, molecule first:

| Compound | pEC50 (HIV-1 (strain LAV)) | further results |
| --- | --- | --- |
| CN(C)CCNc1cc(-c2ccccn2)nc2ccccc12 [Quinoline 5a] | 5.96 | – |
| CCN(CCN(C)C)c1cc(-c2ccccn2)nc2ccccc12 [Quinoline 5b] | 4.88 | – |
| CN1CCN(c2cc(-c3ccccn3)nc3ccccc23)CC1 [Quinoline 5d] | 5.26 | – |
| CN(C)CCNc1cc(-c2cccnc2)nc2ccccc12 [Quinoline 6a] | 5.82 | CC50 at 144 h [1]: > 100 µM |
| CCN(CCN(C)C)c1cc(-c2cccnc2)nc2ccccc12 [Quinoline 6b] | 4.62 | – |
| CN1CCN(c2cc(-c3cccnc3)nc3ccccc23)CC1 [Quinoline 6d] | 6.00 | CC50 at 144 h [1]: > 100 µM |
| CCN(CC)CCCC(C)Nc1ccnc2cc(Cl)ccc12 (centres unmarked) [chloroquine, 7-chloro-4-(4-diethylamino-1-methylbutylamino)quinoline] | – | Antimalarial and antiamoebic activity (in words) [2]: have antimalarial and antiamoebic activity; Adverse effects (in words) [3]: Sudden deaths have been reported; also recorded: infants and children are extremely susceptible to adverse effects; Inhibition of nucleic acid biosynthesis (in words) (DNA): inhibits nucleic acid biosynthesis by forming a molecular complex with DNA |
| CC[n+]1c(-c2ccccc2)c2cc(N)ccc2c2ccc(N)cc21 [ethidium] | – | Unwinding angle [4]: 26 |
| CCN(CC)CCCC(C)Nc1c2ccc(Cl)cc2nc2ccc(OC)cc12 (centres unmarked) [quinacrine, 6-chloro-9-[[4-(diethylamino)-1-methylbutyl]amino]-2-methoxyacridine] | – | Antimalarial and antiamoebic activity (in words) [2]: have antimalarial and antiamoebic activity |
